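Five concentrations, 48 hours, 96-well plates. Definition used: TGI = concentration required for complete inhibition of growth.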
Columns and labels:
Assay in all cases: NCI-60 cell line screen, 48 h
[1] = tested on: 786-0 renal
[2] = tested on: A498 renal
[3] = tested on: A549 NSCLC
[4] = tested on: ACHN renal
[5] = tested on: BT-549 breast
[6] = tested on: CAKI-1 renal
[7] = tested on: CCRF-CEM leukemia
[8] = tested on: COLO 205 colon
[9] = tested on: DU-145 prostate
[10] = tested on: EKVX NSCLC
[11] = tested on: HCC-2998 colon
[12] = tested on: HCT-116 colon
[13] = tested on: HCT-15 colon
[14] = tested on: HL-60(TB) leukemia
[15] = tested on: HOP-62 NSCLC
[16] = tested on: HOP-92 NSCLC
[17] = tested on: HS 578T breast
[18] = tested on: HT29 colon
[19] = tested on: IGROV1 ovarian
[20] = tested on: K-562 leukemia
[21] = tested on: KM12 colon
[22] = tested on: LOX IMVI melanoma
[23] = tested on: M14 melanoma
[24] = tested on: MALME-3M melanoma
[25] = tested on: MCF7 breast
[26] = tested on: MDA-MB-231 breast
[27] = tested on: MDA-MB-435
[28] = tested on: MDA-N
[29] = tested on: MOLT-4 leukemia
[30] = tested on: NCI-H226 lung
[31] = tested on: NCI-H23 lung
[32] = tested on: NCI-H460 lung
[33] = tested on: NCI-H522 lung
[34] = tested on: NCI/ADR-RES ovarian
[35] = tested on: OVCAR-3 ovarian
[36] = tested on: OVCAR-4 ovarian
[37] = tested on: OVCAR-5 ovarian
[38] = tested on: OVCAR-8 ovarian
[39] = tested on: PC-3 prostate
[40] = tested on: RPMI-8226 leukemia
[41] = tested on: RXF 393 renal
[42] = tested on: SF-268 CNS
[43] = tested on: SF-295 CNS
[44] = tested on: SF-539 CNS
[45] = tested on: SK-MEL-2 melanoma
[46] = tested on: SK-MEL-28 melanoma
[47] = tested on: SK-MEL-5 melanoma
[48] = tested on: SK-OV-3 ovarian
[49] = tested on: SN12C renal
[50] = tested on: SNB-19 CNS
[51] = tested on: SNB-75 CNS
[52] = tested on: SW-620 colon
[53] = tested on: T-47D breast
[54] = tested on: TK-10 renal
[55] = tested on: U251 CNS
[56] = tested on: UACC-257 melanoma
[57] = tested on: UACC-62 melanoma
[58] = tested on: UO-31 renal
[59] = tested on: SR leukemia

Measured: TGI

CN(C)/N=C/c1cn(C)c(=O)n(C)c1=O
> 100 µM: [1] | [2] | [3] | [4] | [5] | [6] | [7] | [8] | [9] | [10] | [11] | [12] | [13] | [14] | [15] | [16] | [17] | [18] | [19] | [20] | [21] | [22] | [23] | [24] | [25] | [26] | [27] | [28] | [29] | [30] | [31] | [32] | [33] | [34] | [35] | [36] | [37] | [38] | [39] | [40] | [41] | [42] | [43] | [44] | [45] | [46] | [47] | [48] | [49] | [50] | [51] | [52] | [53] | [54] | [55] | [56] | [57] | [58]

COc1nc2c(c(=O)n1C)N[C@H]1[C@H](OC(C)=O)[C@@H](OC(C)=O)CO[C@H]1N2
> 100 µM: [1] | [2] | [3] | [4] | [5] | [6] | [8] | [9] | [10] | [12] | [13] | [14] | [15] | [16] | [17] | [18] | [19] | [20] | [21] | [22] | [23] | [24] | [25] | [26] | [27] | [28] | [29] | [30] | [32] | [33] | [34] | [35] | [36] | [37] | [38] | [39] | [40] | [41] | [42] | [43] | [44] | [45] | [46] | [47] | [48] | [49] | [50] | [51] | [59] | [52] | [53] | [54] | [55] | [56] | [57] | [58]

— PubChem BioAssay (NCI)
